These results are taken from article PMC5980995, “An allostatic mechanism for M2 pyruvate kinase as an amino-acid sensor” (Biochemical Journal, 2018).

The target in experiment [1] is T1, M2PYK (Homo sapiens, UniProt P14618).
T1 construct: and N-terminal domain (blue, residues 13–43. Residues 1–12, as well as additional residues from the His6-tagged construct); made in house; host or cells: Escherichia coli BL21(DE3), pET28a
The experiment is described as follows: Enzyme kinetics of M2PYK for PEP with saturating ADP in presence of amino acids. The class given is biochemical. As to conditions: kinetic curves at different inhibitor concentrations. The method, then: For the determination of kinetics of M2PYK in the absence/presence of amino acid modulators, enzymatic activity assays were performed as follows. A 5 µl aliquot of 0.002 mg/ml M2PYK in PBS-CM was incubated with different concentrations of amino acids in PBS-CM supplemented with 1 mM dithiothreitol at 37°C at pH 7.4 for 10 min. Then, the same volume of assay buffer [PBS-CM supplemented with 10 mM MgCl2, 100 mM KCl, 1 mM NADH, 40 µmol/min ml LDH, as well as saturating ADP (4 mM) and titrated substrate PEP (0.15–10 mM)] was added. […] For these uncompetitive inhibitors the Ki values were calculated to be equal to IC50/2.
Values of the kinetic parameters (Vmax, K0.5(PEP), and nH) were determined by fitting the equation below to the data. V=Vmax×[PEP]^nH/K0.5nH+[PEP]^nH The Lineweaver–Burk plots were fit using the equation below: Y=K0.5nH+(1/x)^nH/Vmax×(1/x)^nH The Berkley Madonna software (http://www.berkeleymadonna.com/) was used to model approximate proportions of monomer and tetramer M2PYK at given total protein concentrations. The calculation was based on a simplified tetramer [T] monomer [M] equilibrium: [T]⇌[M]+[M]+[M]+[M]withKd=[M]^4/[T] […] The association rate constant was scaled to give a Kd of 0.9 µM, which was estimated from analytical gel chromatography results.
The kinetic curves are shown in Figure 4 and Supplementary Figure S4.

In experiment [2] the target is T1, M2PYK. As to the kind of experiment: M2PYK activity at sub-saturating PEP and ADP: amino-acid IC50/Ki and serine versus alanine/phenylalanine competition. The class given is biochemical. The procedure:
For the determination of kinetics of M2PYK in the absence/presence of amino acid modulators, enzymatic activity assays were performed as follows. A 5 µl aliquot of 0.002 mg/ml M2PYK in PBS-CM was incubated with different concentrations of amino acids in PBS-CM supplemented with 1 mM dithiothreitol at 37°C at pH 7.4 for 10 min. […] For these uncompetitive inhibitors the Ki values were calculated to be equal to IC50/2.
The decrease in absorbance at 340 nm was measured for 5 min at 37°C using a plate reader. […]

Experiment [3] has as its target T1, M2PYK. The experiment is described as follows: ELISA with anti-M2PYK antibody binding the C–C interface (monomer–tetramer equilibrium). The following applies: 10 mM amino acid; 0.0039–2.5 µg/ml M2PYK; 1 h, pH 7.4, room temperature. From the text:
For the production of specific antibodies, a peptide immunogen (Supplementary Figure S1) specific for M2PYK was covalently conjugated with the carrier protein BSA, and injected into Balb/c female mice (6–7 weeks) at 2-week intervals. A mouse showing best selectivity for M2PYK was chosen as a spleen donor. After the production of a hybridoma, a cell line secreting a specific monoclonal antibody was screened and expanded. The specific monoclonal antibody against M2PYK was identified, purified and conjugated with horseradish peroxidase (HRP) for further ELISAs.
A stock solution of anti-His-tag antibody in carbonate buffer (pH 9.6) was coated onto wells at 50 µl/well at 4°C overnight. The wells were then blocked with 100 µl/well of PBS/Tween 20/3% BSA for 1 h at room temperature. Titrated M2PYK (2.5–0.0039 µg/ml) was incubated with or without ligands (10 mM for all amino acids and 1 mM for FBP) in PBS/Tween 20/3% BSA at room temperature for 1 h. Then, 100 µl of the solution was added to each prepared well for an incubation of 1 h. Afterwards, a 100 µl aliquot of PBS/Tween 20/3% BSA containing 4 µg/ml HRP-conjugated M2PYK antibody was added to each well and incubated for 1 h at room temperature. Electrochemiluminescence solution was added at 50 µl/well to develop the luminescence, which was read immediately with a plate reader. Three washes with PBS/Tween 20/3% BSA were performed between each step.
To investigate the effect of ligand binding on monomer–tetramer equilibrium at lower protein concentrations, we developed an ELISA assay. […] As the epitope is hidden in the tetrameric form of M2PYK, antibody binding on the C–C interface of M2PYK reflects the amount of monomer/dimer but not tetramer. The ELISA tests were performed using low concentrations of His6-M1/2PYK (0.0039–2.5 µg/ml) incubated with no ligand or 10 mM of each amino acid for 1 h in PBS-CM at pH 7.4 at room temperature. The incubated solutions were added to 96-well plates precoated with anti-His-tag antibodies. HRP-conjugated M2PYK antibodies were then incubated, followed by luminescence reading.
(In general: ELISA stands for enzyme-linked immunosorbent assay.)

Experiment [4] deals with M1PYK. Further details: method as in PMID 5166752, PMID 16634623. The following applies: cited from earlier work.
In experiment [5] the test system is cell proliferation. Further details: method as in PMID 23530218. The following applies: via activation or inhibition of M2PYK; cited from earlier work.

T1 sequence (P14618 whole entry, the tested form may be a part): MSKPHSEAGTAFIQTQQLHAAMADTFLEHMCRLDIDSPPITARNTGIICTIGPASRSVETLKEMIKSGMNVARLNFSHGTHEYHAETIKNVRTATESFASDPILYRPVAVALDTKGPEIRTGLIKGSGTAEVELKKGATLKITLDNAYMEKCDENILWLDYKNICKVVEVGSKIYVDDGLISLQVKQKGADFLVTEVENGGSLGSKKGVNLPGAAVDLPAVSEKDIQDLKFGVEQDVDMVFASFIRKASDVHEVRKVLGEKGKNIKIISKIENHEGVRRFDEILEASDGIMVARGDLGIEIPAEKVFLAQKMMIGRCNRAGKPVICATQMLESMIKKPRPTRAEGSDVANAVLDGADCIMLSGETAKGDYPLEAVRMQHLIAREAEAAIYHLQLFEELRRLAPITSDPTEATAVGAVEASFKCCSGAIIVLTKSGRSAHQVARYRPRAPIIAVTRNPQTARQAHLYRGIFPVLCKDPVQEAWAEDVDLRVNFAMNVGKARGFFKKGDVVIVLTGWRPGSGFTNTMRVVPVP

Regarding `N[C@@H](Cc1ccccc1)C(=O)O` [phenylalanine, L-phenylalanine], in experiment [1], the “mode of inhibition of M2PYK” value is given as “allosteric uncompetitive inhibitors”. In addition, the Ki – broadly, a measure of affinity in units of concentration, obtained from inhibition or displacement – in experiment [2] (calculated as IC50/2 (uncompetitive inhibitors), read-out: inhibitor constant (Ki) against M2PYK) was 205 µM. The M2PYK activity in experiment [2] (phenylalanine at ∼0.2 mM, no serine) is listed as approximately 65%; in experiment [2] (phenylalanine ∼0.2 mM in the presence of 0.6 mM serine) it was “nearly full activity”. The IC50 – broadly, the midpoint of a concentration-inhibition curve – in experiment [2] (sub-saturating PEP and ADP, 0 µM serine, read-out: IC50 against M2PYK) is 410 µM. Moreover, in experiment [3], the “oligomeric state of M2PYK at low protein concentration” value is reported as “predominantly tetrameric”. Further, the “regulatory effect on M1PYK enzymatic activity” value in experiment [4] is recorded as “non-competitive inhibition”. In addition, the “effect on cell proliferation” value in experiment [5] is reported as “favours cell proliferation”.
